For 15 molecules, IC50 results are on record in US9376425B2, “Heterocyclic compounds as MDM2 inhibitors for the treatment of cancer” (AMGEN INC., priority 2011, dated 2016).

As a reminder, the IC50 is the midpoint of a concentration-inhibition curve.

A value given as a limit tells only on which side of the number the result lay.

The target in this assay is T1, human MDM2 (GST-hMDM2 1-188), interaction with biotinylated-p53 (1-83) (Homo sapiens, UniProt Q00987).
T1 construct: Amino acid residues 1-188 of human MDM2 were expressed; made in house; host or cells: Escherichia coli
T1 sequence (Q00987 1-188): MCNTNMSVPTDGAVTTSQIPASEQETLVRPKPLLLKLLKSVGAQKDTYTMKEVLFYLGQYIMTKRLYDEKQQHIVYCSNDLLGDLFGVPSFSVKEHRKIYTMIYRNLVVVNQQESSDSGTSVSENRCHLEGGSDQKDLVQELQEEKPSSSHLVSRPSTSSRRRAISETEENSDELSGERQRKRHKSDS
The assay is described as follows: improved HTRF assay (HTRF2 assay), inhibition of HDM2-p53 interaction. It is filed as binding. Particulars: 0.2 nM GST-hMDM2, 0.5 nM biotinylated-p53, 100 mM KF. The method, boiled down: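 GST-hMDM2 preincubated 20 min at RT with serially diluted compound, then biotinylated p53 (1-83, E. coli) added for 60 min. Detection with SA-XLent, anti-GST cryptate and KF, equilibrated >4 h; final DMSO 2%. TR-FRET read; % inhibition calculated relative to nutlin-3.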
As to `CC[C@@H](CN(c1ccccc1F)S(=O)(=O)C1CC1)N1C(=O)[C@@H](CC(=O)O)O[C@H](c2cccc(Cl)c2)[C@H]1c1ccc(Cl)s1` (single isomer, unassigned) [Example 216, 2-((2R,5S,6R)-6-(3-chlorophenyl)-5-(5-chlorothiophen-2-yl)-4-((S)-1-(N-(2-fluorophenyl)cyclopropanesulfonamido)butan-2-yl)-3-oxomorpholin-2-yl)acetic acid or 2-((2S,5S,6R)-6-(3-chlorophenyl)-5-(5-chlorothiophen-2-yl)-4-((S)-1-(N-(2-fluorophenyl)cyclopropanesulfonamido)butan-2-yl)-3-oxomorpholin-2-yl)acetic acid], the IC50 was less than 1 nM. `CC[C@@H](CN(c1ccccc1F)S(=O)(=O)C1CC1)N1C(=O)[C@@H](CC(=O)O)O[C@H](c2cccc(Cl)c2)[C@H]1c1ccc(Cl)s1` (single isomer, unassigned) [Example 217, 2-((2R,5S,6R)-6-(3-chlorophenyl)-5-(5-chlorothiophen-2-yl)-4-((S)-1-(N-(2-fluorophenyl)cyclopropanesulfonamido)butan-2-yl)-3-oxomorpholin-2-yl)acetic acid or 2-((2S,5S,6R)-6-(3-chlorophenyl)-5-(5-chlorothiophen-2-yl)-4-((S)-1-(N-(2-fluorophenyl)cyclopropanesulfonamido)butan-2-yl)-3-oxomorpholin-2-yl)acetic acid] had a half-inhibitory concentration (IC50) of less than 1 nM. Molecule `CC[C@@H](CS(=O)(=O)C(C)(C)C)N1C(=O)[C@@H](CC(=O)O)O[C@H](c2cccc(Cl)c2)[C@H]1c1ccc(Cl)s1` (single isomer, unassigned) [Example 218, 2-((2R,5S,6R)-4-((S)-1-(tert-butylsulfonyl)butan-2-yl)-6-(3-chlorophenyl)-5-(5-chlorothiophen-2-yl)-3-oxomorpholin-2-yl)acetic acid or 2-((2S,5S,6R)-4-((S)-1-(tert-butylsulfonyl)butan-2-yl)-6-(3-chlorophenyl)-5-(5-chlorothiophen-2-yl)-3-oxomorpholin-2-yl)acetic acid] registered an IC50 of 1 nM.

As for `CC[C@@H](CS(=O)(=O)C(C)(C)C)N1C(=O)[C@@H](CC(=O)O)O[C@H](c2cccc(Cl)c2)[C@H]1c1ccc(Cl)s1` (single isomer, unassigned) [Example 219, 2-((2R,5S,6R)-4-((S)-1-(tert-butylsulfonyl)butan-2-yl)-6-(3-chlorophenyl)-5-(5-chlorothiophen-2-yl)-3-oxomorpholin-2-yl)acetic acid or 2-((2S,5S,6R)-4-((S)-1-(tert-butylsulfonyl)butan-2-yl)-6-(3-chlorophenyl)-5-(5-chlorothiophen-2-yl)-3-oxomorpholin-2-yl)acetic acid], the IC50 worked out at 1 nM.

Molecule `CC[C@@H](CCS(=O)(=O)C(C)(C)C)N1C(=O)[C@@H](CC(=O)O)O[C@H](c2cccc(Cl)c2)[C@H]1c1ccc(Cl)cc1` (single isomer, unassigned) [Example 220, 2-((2R,5R,6R)-4-((S)-1-(tert-butylsulfonyl)pentan-3-yl)-6-(3-chlorophenyl)-5-(4-chlorophenyl)-3-oxomorpholin-2-yl)acetic acid or 2-((2S,5R,6R)-4-((S)-1-(tert-butylsulfonyl)pentan-3-yl)-6-(3-chlorophenyl)-5-(4-chlorophenyl)-3-oxomorpholin-2-yl)acetic acid] displayed an IC50 of 9 nM. `CC[C@@H](CCS(=O)(=O)C(C)(C)C)N1C(=O)[C@@H](CC(=O)O)O[C@H](c2cccc(Cl)c2)[C@H]1c1ccc(Cl)cc1` (single isomer, unassigned) [Example 221, 2-((2R,5R,6R)-4-((S)-1-(tert-butylsulfonyl)pentan-3-yl)-6-(3-chlorophenyl)-5-(4-chlorophenyl)-3-oxomorpholin-2-yl)acetic acid or 2-((2S,5R,6R)-4-((S)-1-(tert-butylsulfonyl)pentan-3-yl)-6-(3-chlorophenyl)-5-(4-chlorophenyl)-3-oxomorpholin-2-yl)acetic acid]: the IC50 amounted to 12 nM.

`C[C@@H](CS(=O)(=O)C(C)(C)C)N1C(=O)[C@@H](CC(N)=O)O[C@H](c2cccc(Cl)c2)[C@H]1c1ccc(Cl)cc1` (single isomer, unassigned) [Example 225, 2-((2R,5R,6R)-4-((S)-1-(tert-butylsulfonyl)propan-2-yl)-6-(3-chlorophenyl)-5-(4-chlorophenyl)-3-oxomorpholin-2-yl)acetamide or 2-((2S,5R,6R)-4-((S)-1-(tert-butylsulfonyl)propan-2-yl)-6-(3-chlorophenyl)-5-(4-chlorophenyl)-3-oxomorpholin-2-yl)acetamide] registered an IC50 of 6 nM. Turning to `C[C@@H](CS(=O)(=O)C(C)(C)C)N1C(=O)[C@H](CC(N)=O)O[C@H](c2cccc(Cl)c2)[C@H]1c1ccc(Cl)cc1` (single isomer, unassigned) [Example 226, 2-((2S,5R,6R)-4-((S)-1-(tert-butylsulfonyl)propan-2-yl)-6-(3-chlorophenyl)-5-(4-chlorophenyl)-3-oxomorpholin-2-yl)acetamide or 2-((2R,5R,6R)-4-((S)-1-(tert-butylsulfonyl)propan-2-yl)-6-(3-chlorophenyl)-5-(4-chlorophenyl)-3-oxomorpholin-2-yl)acetamide], inhibition was half-maximal at 11 nM (IC50). `CNC(=O)C[C@@H]1O[C@H](c2cccc(Cl)c2)[C@@H](c2ccc(Cl)cc2)N([C@@H](C)CS(=O)(=O)C(C)(C)C)C1=O` (single isomer, unassigned) [Example 227, 2-((2S,5R,6R)-4-((S)-1-(tert-butylsulfonyl)propan-2-yl)-6-(3-chlorophenyl)-5-(4-chlorophenyl)-3-oxomorpholin-2-yl)-N-methylacetamide or 2-((2R,5R,6R)-4-((S)-1-(tert-butylsulfonyl)propan-2-yl)-6-(3-chlorophenyl)-5-(4-chlorophenyl)-3-oxomorpholin-2-yl)-N-methylacetamide] gave an IC50 of 11 nM.

With `CNC(=O)C[C@H]1O[C@H](c2cccc(Cl)c2)[C@@H](c2ccc(Cl)cc2)N([C@@H](C)CS(=O)(=O)C(C)(C)C)C1=O` (single isomer, unassigned) [Example 228, 2-((2R,5R,6R)-4-((S)-1-(tert-butylsulfonyl)propan-2-yl)-6-(3-chlorophenyl)-5-(4-chlorophenyl)-3-oxomorpholin-2-yl)-N-methylacetamide or 2-((2S,5R,6R)-4-((S)-1-(tert-butylsulfonyl)propan-2-yl)-6-(3-chlorophenyl)-5-(4-chlorophenyl)-3-oxomorpholin-2-yl)-N-methylacetamide], inhibition was half-maximal at 14 nM (IC50). With `C[C@@H](CS(=O)(=O)C(C)(C)C)N1C(=O)[C@H](CC(=O)NO)O[C@H](c2cccc(Cl)c2)[C@H]1c1ccc(Cl)cc1` (single isomer, unassigned) [Example 229, 2-((2S,5R,6R)-4-((S)-1-(tert-butylsulfonyl)propan-2-yl)-6-(3-chlorophenyl)-5-(4-chlorophenyl)-3-oxomorpholin-2-yl)-N-hydroxyacetamide or 2-((2R,5R,6R)-4-((S)-1-(tert-butylsulfonyl)propan-2-yl)-6-(3-chlorophenyl)-5-(4-chlorophenyl)-3-oxomorpholin-2-yl)-N-hydroxyacetamide], the IC50 was determined as 8 nM. In the case of `C[C@@H](CS(=O)(=O)C(C)(C)C)N1C(=O)[C@@H](CC(=O)NO)O[C@H](c2cccc(Cl)c2)[C@H]1c1ccc(Cl)cc1` (single isomer, unassigned) [Example 230, 2-((2R,5R,6R)-4-((S)-1-(tert-butylsulfonyl)propan-2-yl)-6-(3-chlorophenyl)-5-(4-chlorophenyl)-3-oxomorpholin-2-yl)-N-hydroxyacetamide or 2-((2S,5R,6R)-4-((S)-1-(tert-butylsulfonyl)propan-2-yl)-6-(3-chlorophenyl)-5-(4-chlorophenyl)-3-oxomorpholin-2-yl)-N-hydroxyacetamide], the IC50 was found to be 7 nM. The value for `C[C@@H](CS(=O)(=O)C(C)(C)C)N1C(=O)[C@H](CC(=O)N(C)C)O[C@H](c2cccc(Cl)c2)[C@H]1c1ccc(Cl)cc1` (single isomer, unassigned) [Example 231, 2-((2S,5R,6R)-4-((S)-1-(tert-butylsulfonyl)propan-2-yl)-6-(3-chlorophenyl)-5-(4-chlorophenyl)-3-oxomorpholin-2-yl)-N,N-dimethylacetamide or 2-((2R,5R,6R)-4-((S)-1-(tert-butylsulfonyl)propan-2-yl)-6-(3-chlorophenyl)-5-(4-chlorophenyl)-3-oxomorpholin-2-yl)-N,N-dimethylacetamide] was 16 nM. Molecule `C[C@@H](CS(=O)(=O)C(C)(C)C)N1C(=O)[C@@H](CC(=O)N(C)C)O[C@H](c2cccc(Cl)c2)[C@H]1c1ccc(Cl)cc1` (single isomer, unassigned) [Example 232, 2-((2R,5R,6R)-4-((S)-1-(tert-butylsulfonyl)propan-2-yl)-6-(3-chlorophenyl)-5-(4-chlorophenyl)-3-oxomorpholin-2-yl)-N,N-dimethylacetamide or 2-((2S,5R,6R)-4-((S)-1-(tert-butylsulfonyl)propan-2-yl)-6-(3-chlorophenyl)-5-(4-chlorophenyl)-3-oxomorpholin-2-yl)-N,N-dimethylacetamide] yielded an IC50 of 31 nM.

`C[C@@H](CS(=O)(=O)C(C)(C)C)N1C(=O)[C@H](CC(=O)NCCO)O[C@H](c2cccc(Cl)c2)[C@H]1c1ccc(Cl)cc1` (single isomer, unassigned) [Example 233, 2-((2S,5R,6R)-4-((S)-1-(tert-butylsulfonyl)propan-2-yl)-6-(3-chlorophenyl)-5-(4-chlorophenyl)-3-oxomorpholin-2-yl)-N-(2-hydroxyethyl)acetamide or 2-((2R,5R,6R)-4-((S)-1-(tert-butylsulfonyl)propan-2-yl)-6-(3-chlorophenyl)-5-(4-chlorophenyl)-3-oxomorpholin-2-yl)-N-(2-hydroxyethyl)acetamide] displayed an IC50 of 6 nM.
